Experimental data reported in patent US9334238B2, “N-substituted pyridinylidenes for combating animal pests” (BASF SE, priority 2012, dated 2016).

Legend:
Assay type in all cases: in vivo
[1] = test system: Cowpea Aphid (Aphis craccivora); experiment: Cowpea aphid test, sprayed potted cowpea plants; conditions: 500 ppm spray on infested cowpea plants, after 72 hours, read-out: mortality in comparison with untreated controls
Experimental: B.2 Cowpea Aphid (Aphis craccivora)
The active compound was dissolved at the desired concentration in a mixture of 1:1 (vol:vol) distilled water: acetone. Surfactant (Alkamuls® EL 620) was added at a rate of 0.1% (vol/vol). The test solution was prepared at the day of use.
Potted cowpea plants were colonized with approximately 50-100 aphids of various stages by manually transferring a leaf tissue cut from infested plant 24 hours before application. Plants were sprayed after the pest population has been recorded. Treated plants were maintained on light carts at about 28° C. Percent mortality was assessed after 72 hours.

[2] = test system: Orchid thrips (dichromothrips corbetti); experiment: Orchid thrips floral-immersion test; conditions: orchid flowers dipped, adult thrips, 72 hours after treatment, read-out: mortality in comparison with untreated controls
Experimental: B.4 Orchid thrips (dichromothrips corbetti)
Dichromothrips corbetti adults used for bioassay were obtained from a colony maintained continuously under laboratory conditions. For testing purposes, the test compound was diluted in a 1:1 mixture of acetone:water (vol:vol), plus 0.01% vol/vol Alkamuls® EL 620 surfactant.
Thrips potency of each compound was evaluated by using a floral-immersion technique. Plastic petri dishes were used as test arenas. All petals of individual, intact orchid flowers were dipped into treatment solution and allowed to dry. Treated flowers were placed into individual petri dishes along with about 20 adult thrips. The petri dishes were then covered with lids. All test arenas were held under continuous light and a temperature of about 28° C. for duration of the assay. After 3 days, the numbers of live thrips were counted on each flower, and along inner walls of each petri dish. The percent mortality was recorded 72 hours after treatment.

[3] = test system: Rice Green Leafhopper (Nephotettix virescens); experiment: Rice green leafhopper test, sprayed rice seedlings; conditions: 500 ppm spray on rice seedlings, adults, after 72 hours, read-out: mortality in comparison with untreated controls
Experimental: B.5 Rice Green Leafhopper (Nephotettix virescens)
(§1) Rice seedlings were cleaned and washed 24 hours before spraying. The active compounds were formulated in 50:50 acetone:water (vol:vol), and 0.1% vol/vol surfactant (EL 620) wss added. Potted rice seedlings were sprayed with 5 ml test solution, air dried, placed in cages and inoculated with 10 adults. Treated rice plants were kept at about 28-29° C. and relative humidity of about 50-60%. Percent mortality was recorded after 72 hours.

[4] = test system: Mediterranean fruitfly (Ceratitis capitata); experiment: Mediterranean fruitfly test, insect diet with eggs in microtiter plates; conditions: 120 h, 2500 ppm sprayed onto insect diet, egg and larval mortality, 5 days, read-out: mortality in comparison with untreated controls
Experimental: B.7 Mediterranean Fruitfly (Ceratitis capitata)
For evaluating control of Mediterranean fruitfly (Ceratitis capitata) the test unit consists of microtiter plates containing an insect diet and 50-80 C. capitata eggs.
The compounds were formulated using a solution containing 75% v/v water and 25% v/v DMSO. Different concentrations of formulated compounds were sprayed onto the insect diet at 5 μl, using a custom built micro atomizer, at two replications.
After application, microtiter plates were incubated at about 28±1° C. and about 80±5% relative humidity for 5 days. Egg and larval mortality was then visually assessed.

[5] = test system: green peach aphid (Myzus persicae); experiment: Green peach aphid systemic test, artificial diet in 96-well microtiter plates; conditions: 72 h, 2500 ppm in aphid diet, adult aphids, 3 days, read-out: mortality in comparison with untreated controls
From the text: B.1 Green Peach Aphid (Myzus persicae)
For evaluating control of green peach aphid (Myzus persicae) through systemic means, the test unit consisted of 96-well-microtiter plates containing liquid artificial diet under an artificial membrane.
The compounds were formulated using a solution containing 75% v/v water and 25% v/v DMSO. Different concentrations of formulated compounds were pipetted into the aphid diet, using a custom built pipetter, at two replications.
After application, 5-8 adult aphids were placed on the artificial membrane inside the microtiter plate wells. The aphids were then allowed to suck on the treated aphid diet and incubated at about 23±1° C. and about 50±5% relative humidity for 3 days. Aphid mortality and fecundity was then visually assessed.

[6] = test system: Rice Brown Plant Hopper (Nilaparvata lugens); experiment: Rice brown plant hopper test, sprayed rice seedlings; conditions: 500 ppm spray on rice seedlings, adults, after 72 hours, read-out: mortality in comparison with untreated controls
Experimental: B.6 Rice Brown Plant Hopper (Nilaparvata lugens)
as §1, with “compounds was” for “compounds were”, “acetone:water (vol:vol)” for “acetone:water (vol:vol),”, “620) was” for “620) wss”

[7] = test system: vetch aphid (Megoura viciae); experiment: Vetch aphid contact/systemic test, broad bean leaf disks; conditions: foliar, 120 h, 2500 ppm sprayed onto leaf disks, adult aphids, 5 days, read-out: mortality in comparison with untreated controls
Experimental: B.3 Vetch Aphid (Megoura viciae)
For evaluating control of vetch aphid (Megoura viciae) through contact or systemic means the test unit consisted of 24-well-microtiter plates containing broad bean leaf disks.
The compounds were formulated using a solution containing 75% v/v water and 25% v/v DMSO. Different concentrations of formulated compounds were sprayed onto the leaf disks at 2.5 μl, using a custom built micro atomizer, at two replications.
After application, the leaf disks were air-dried and 5-8 adult aphids placed on the leaf disks inside the microtiter plate wells. The aphids were then allowed to suck on the treated leaf disks and incubated at about 23±1° C. and about 50±5% relative humidity for 5 days. Aphid mortality and fecundity was then visually assessed.

O=C(/C=C1\C=CC=CN1Cc1ccc(Cl)nc1)C(F)(F)F [E-1, (3E)-3-[1-[(6-chloro-3-pyridyl)methyl]-2-pyridylidene]-1,1,1-trifluoro-propan-2-one]
≥ 75%: mortality at 500 ppm [1] | mortality at 500 ppm [2] | mortality at 500 ppm [3] | mortality at 2500 ppm [4] | mortality at 2500 ppm [5] | mortality at 500 ppm [6] | mortality at 2500 ppm [7]
